Laboratory results: ChEMBL document CHEMBL1201862, “PubChem BioAssay data set” (2004)
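96-well plates; 48 h exposure; 5 concentrations. Endpoints by linear interpolation between flanking doses. Not reached: highest tested concentration assigned. GI50 = concentration required for 50% inhibition of growth.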 Activity calls are given as the source filed them. Cut-off read from the data, not from the text of the source: active = GI50 up to about 1.1 µM and inactive = higher.

Tests used:
Experiment in all cases: NCI anticancer screen, dose series, 48 h
HCT-15 = system: HCT-15
SF-539 = system: SF-539
U-251 = system: U-251
TK-10 = system: TK-10
RPMI-8226 = system: RPMI-8226
NCI/ADR-RES = system: NCI/ADR-RES
MDA-MB-435 = system: MDA-MB-435
HL-60 = system: HL-60
UO-31 = system: UO-31
SNB-19 = system: SNB-19
NCI-H460 = system: NCI-H460
SN12C = system: SN12C
SF-295 = system: SF-295
SW-620 = system: SW-620
HCT-116 = system: HCT-116
SR = system: SR
NCI-H522 = system: NCI-H522
PC-3 = system: PC-3
COLO 205 = system: COLO 205
Malme-3M = system: Malme-3M
Hs-578T = system: Hs-578T
A549 = system: A549
M14 = system: M14
MOLT-4 = system: MOLT-4
MDA-N = system: MDA-N
SK-MEL-5 = system: SK-MEL-5
BT-549 = system: BT-549
SK-MEL-2 = system: SK-MEL-2
CAKI-1 = system: CAKI-1
MCF7 = system: MCF7
OVCAR-8 = system: OVCAR-8
DU-145 = system: DU-145
KM12 = system: KM12
HT-29 = system: HT-29
SNB-75 = system: SNB-75
T47D = system: T47D
OVCAR-4 = system: OVCAR-4
CCRF-CEM = system: CCRF-CEM
RXF 393 = system: RXF 393
UACC-62 = system: UACC-62
OVCAR-3 = system: OVCAR-3
K562 = system: K562
MDA-MB-231 = system: MDA-MB-231
SK-OV-3 = system: SK-OV-3
EKVX = system: EKVX
OVCAR-5 = system: OVCAR-5
786-0 = system: 786-0
LOX IMVI = system: LOX IMVI
HCC 2998 = system: HCC 2998
NCI-H23 = system: NCI-H23
IGROV-1 = system: IGROV-1
NCI-H226 = system: NCI-H226
SK-MEL-28 = system: SK-MEL-28
SF-268 = system: SF-268
ACHN = system: ACHN
HOP-62 = system: HOP-62
UACC-257 = system: UACC-257
HOP-92 = system: HOP-92

Measured: GI50

COc1cc(C2C3=C(COC3=O)Oc3cc4c(cc32)OCO4)cc(OC)c1O (stereo not drawn)
0.0126 µM: HCT-15
active: SF-539 < 0.01 µM | U-251 < 0.0134 µM | TK-10 0.589 µM | RPMI-8226 < 0.0232 µM | NCI/ADR-RES < 0.01 µM | MDA-MB-435 < 0.01 µM | HL-60 < 0.01 µM | UO-31 0.0592 µM | SNB-19 < 0.0123 µM | NCI-H460 < 0.0139 µM | SN12C 0.0364 µM | SF-295 < 0.01 µM | SW-620 0.0124 µM | HCT-116 0.0103 µM | SR < 0.01 µM | NCI-H522 < 0.01 µM | PC-3 < 0.01 µM | COLO 205 < 0.0133 µM | Malme-3M < 0.01 µM | Hs-578T 0.0119 µM | A549 < 0.0141 µM | M14 < 0.0112 µM | MOLT-4 0.0175 µM | MDA-N < 0.01 µM | SK-MEL-5 < 0.01 µM | SK-MEL-2 0.0101 µM | CAKI-1 < 0.01 µM | MCF7 < 0.01 µM | OVCAR-8 < 0.0152 µM | DU-145 0.0157 µM | KM12 < 0.01 µM | HT-29 < 0.0147 µM | SNB-75 < 0.01 µM | T47D 0.0157 µM | CCRF-CEM 0.0134 µM | RXF 393 < 0.01 µM | UACC-62 < 0.01 µM | OVCAR-3 0.0127 µM | K562 < 0.01 µM | MDA-MB-231 < 0.0246 µM | SK-OV-3 < 0.012 µM | EKVX 0.0207 µM | OVCAR-5 0.0236 µM | 786-0 < 0.0152 µM | LOX IMVI < 0.0112 µM | HCC 2998 < 0.0209 µM | NCI-H23 0.465 µM | IGROV-1 < 0.0121 µM | NCI-H226 < 0.0118 µM | SK-MEL-28 < 0.01 µM | SF-268 0.226 µM | ACHN < 0.0119 µM | HOP-62 < 0.0135 µM
inactive: BT-549 39.8 µM | OVCAR-4 8.24 µM

CC(=O)Oc1ccc2c(c1OC(C)=O)CCC1C2=CC[C@]2(C)C(=O)CCC12 (stereo partly drawn)
inactive: SF-539 14.2 µM | TK-10 13.9 µM | NCI/ADR-RES 27.6 µM | UACC-257 25.6 µM | MDA-MB-435 4.45 µM | HL-60 6.89 µM | UO-31 9.57 µM | SNB-19 12.5 µM | NCI-H460 16.4 µM | SN12C 14.1 µM | SF-295 12.9 µM | SW-620 3.18 µM | HCT-116 4.92 µM | SR 6.61 µM | NCI-H522 1.82 µM | PC-3 3.24 µM | COLO 205 14.5 µM | Malme-3M 13.8 µM | Hs-578T 19.6 µM | A549 16 µM | M14 12.5 µM | MOLT-4 3.3 µM | MDA-N 14.2 µM | BT-549 15.6 µM | SK-MEL-2 15.1 µM | CAKI-1 6.07 µM | MCF7 14.2 µM | OVCAR-8 14.3 µM | DU-145 15.7 µM | KM12 16 µM | HT-29 17.6 µM | HOP-92 5.15 µM | T47D 9.46 µM | OVCAR-4 3.36 µM | CCRF-CEM 3.37 µM | UACC-62 12.3 µM | OVCAR-3 2.44 µM | K562 14 µM | MDA-MB-231 14.3 µM | SK-OV-3 20.7 µM | EKVX 10.5 µM | OVCAR-5 15.1 µM | 786-0 2.47 µM | NCI-H23 21.4 µM | IGROV-1 4.73 µM | SK-MEL-28 9.12 µM | SF-268 12.1 µM | ACHN 11.8 µM | HOP-62 19.7 µM
10.6 µM: HCT-15
active: RPMI-8226 1 µM | SK-MEL-5 < 0.01 µM

O=C(O)/C=C/c1ccc(Oc2ccccc2C(=O)O)o1
inactive: SF-539 > 10 µM | U-251 > 10 µM | TK-10 > 10 µM | RPMI-8226 > 10 µM | NCI/ADR-RES > 10 µM | UACC-257 > 10 µM | MDA-MB-435 > 10 µM | HL-60 > 10 µM | SNB-19 > 10 µM | SN12C > 10 µM | SF-295 > 10 µM | SW-620 > 10 µM | HCT-116 > 10 µM | SR > 10 µM | NCI-H522 > 10 µM | PC-3 > 10 µM | COLO 205 > 10 µM | Malme-3M > 10 µM | Hs-578T > 10 µM | A549 > 10 µM | M14 > 10 µM | MOLT-4 > 10 µM | MDA-N > 10 µM | SK-MEL-5 > 10 µM | BT-549 > 10 µM | CAKI-1 > 10 µM | MCF7 > 10 µM | OVCAR-8 > 10 µM | DU-145 > 10 µM | KM12 > 10 µM | HT-29 > 10 µM | SNB-75 > 10 µM | HOP-92 > 10 µM | T47D > 10 µM | OVCAR-4 > 10 µM | CCRF-CEM > 10 µM | UACC-62 > 10 µM | K562 > 10 µM | MDA-MB-231 > 10 µM | SK-OV-3 > 10 µM | 786-0 > 10 µM | LOX IMVI > 10 µM | HCC 2998 > 10 µM | NCI-H23 > 10 µM | IGROV-1 > 10 µM | SK-MEL-28 > 10 µM | SF-268 > 10 µM | ACHN > 10 µM | HOP-62 > 10 µM
> 10 µM: HCT-15
